Laboratory results reported in patent publication US10966996B2, “Glechoma longitube extract, preparation method for same, and use thereof in sugar reduction, weight loss, and lipid reduction” (SHANGHAI INSTITUTE OF MATERIA MEDICA CHINESE ACADEMY OF …, priority 2014, dated 2021).

Experiments:
[1] = test system: C57BL/KsJ mice; test: acute oral glucose tolerance test (OGTT) and blood insulin in mice; assay type: in vivo; conditions: for acute oral glucose tolerance in mice: both 100 mg/kg and 200 mg/kg; for acute oral glucose tolerance in mice, compared with Sitagliptin (10 mg/kg): higher dose (200 mg/kg)
Protocol: Oral glucose tolerance test (OGTT) method: 8-week old male C57BL/KsJ mice (Shanghai Slac Laboratory Animal Company), 8 for each group, weight of 20±2 g, were fed according to SPF grade operation procedure and fasted for 16 hours prior to experiment. Blood was collected from tail vein of each group of mice prior to experiment. Blood glucose concentrations were measured using Roche ACCU-CHEK glucometer and recorded as time 0. Different concentrations of the compound were intragastric administrated to each administration group of mice, respectively. Equal volume of distilled water was given to control group of mice. The dosage volume was 10 ml/kg. Half an hour after administration, 5 g/kg glucose was intragastric administrated to each group of mice. Blood glucose concentrations of each group of mice were measured and recorded at 20 mins, 40 mins, and 80 mins after the intragastric administration. OGTT curves were recorded. Areas under the curves (AUC) were calibrated with the data in blood glucose of mice to which glucose was not given (calibration group). ONE-WAY-ANOVA was used to compare significant difference between each group (Note: all the experimental methods for acute oral glucose tolerance test in the following activity examples are the same to the experimental method in Example 5, unless otherwise indicated). Blood was collected from tail vein at 20 mins after oral administration of glucose for mice. ELISA (kit was bought from Millipore, USA) was utilized for measuring blood insulin level of mice.

[2] = target: T1, hDGAT1 (Homo sapiens, UniProt O75907); test: inhibitory activity against hDGAT1 (CPM fluorescence); assay type: biochemical; conditions: for inhibition at 10 µM: read-out: Inhibition rate (%) (10 μM) against hDGAT1; for inhibition at 50 µM: read-out: Inhibition rate (%) (50 μM) against hDGAT1
T1 construct: made in house; host or cells: insect cells
T1 sequence (O75907 1-488): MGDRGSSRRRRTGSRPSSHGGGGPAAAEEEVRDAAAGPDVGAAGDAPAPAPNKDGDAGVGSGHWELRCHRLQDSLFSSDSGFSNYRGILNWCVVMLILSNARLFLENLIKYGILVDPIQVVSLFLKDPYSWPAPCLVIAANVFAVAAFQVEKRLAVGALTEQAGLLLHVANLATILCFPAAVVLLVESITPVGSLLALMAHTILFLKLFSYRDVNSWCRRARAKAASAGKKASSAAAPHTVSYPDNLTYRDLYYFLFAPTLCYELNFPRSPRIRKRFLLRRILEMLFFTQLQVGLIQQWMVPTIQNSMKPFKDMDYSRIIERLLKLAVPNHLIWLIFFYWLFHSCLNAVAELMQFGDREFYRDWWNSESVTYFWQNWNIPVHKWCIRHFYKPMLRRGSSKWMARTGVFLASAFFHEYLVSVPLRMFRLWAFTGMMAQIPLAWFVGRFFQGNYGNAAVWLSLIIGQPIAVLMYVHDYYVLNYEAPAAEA
Protocol: Experimental method: (1) the effect of the extract of Glechoma longituba (Nakai) Kupr., LQC-H-1, on serum triglyceride level was evaluated in acute hypertriglyceridemic mouse model; 6-week old male C57BL/KsJ mice (Shanghai Slac Laboratory Animal Company), 8 for each group, weight of 20±2 g, were fed according to SPF grade operation procedure and fasted overnight for 16 hours prior to experiment. Compounds of different concentrations were intragastric administrated to each administration group of mice, respectively. Equal volume of water was given to control group and blank group of mice. 30 mins later, 2 g/kg olive oil was intragastric administrated to administration group and control group of mice, while equal volume of water was given to blank group of mice. 2 hours later, blood was collected from orbital vein of each group of mice for the separation of serum, and concentration of triglyceride in the serum was measured; (2) inhibitory activity of the individual compounds separated from the extract of Glechoma longituba (Nakai) Kupr., LQC-H-1, against diacylglycerol acyltransferase (DGAT): human derived DGAT1 obtained by expression and purification with insect cells were pre-incubated together with the compounds, substrate diacylglycerol was added to initiate the reaction in the presence of coenzyme A, fluorescence signal generated by the combination of produced sulfydryl and CPM was measured, and the inhibitory activity of the compound against DGAT was calculated according to the following formula: Inhibition rate %=(OD blank−OD compound)/(OD blank−OD negative control)*100%
OD compound, OD blank, and OD negative control represented the fluorescence values from a compound well, a blank well, and a negative control well free of DGAT1 enzyme, and the concentrations of the compounds when the enzyme activity inhibition rate (%) reached 50% were set as IC50 value; (3) inhibitory activity of the individual compounds separated from the extract of Glechoma longituba (Nakai) Kupr., LQC-H-1, against pancrelipase: substrate p-Nitrophenyl acetate (Sigma, USA) was formulated to 1.35 mM with phosphate buffer (25 mM, pH 6.8); porcine pancrelipase (Sigma) was formulated to 10 mg/ml with phosphate buffer; brominated eneyne compounds were formulated to solutions of different concentrations with phosphate buffer. Then, 50 μl of 1.35 mM p-Nitrophenyl acetate (Sigma, USA) solution and 10 μl of test compounds of different concentrations were sequentially added into a 96-well plate and pre-incubated at 37° C. for 5 mins. Finally, 50 μl of 10 mg/ml pancrelipase (EC 3.1.1.3, Sigma, USA) was added and mixed. The reaction proceeded at 37° C. for further 20 mins Absorbance of each well was measured at 492 nm. The inhibition rates (%) of the test samples against pancrelipase were calculated based on the absorbance at 492 nm. The concentrations of the compounds when then enzyme activity inhibition rate (%) reached 50% was set as IC50 value. The inhibition rate (%) could be calculated according to the following formula: Inhibition rate (%)=[(A−B)−(C−D)]/(A−B)×100

Structure (SMILES)	acute oral glucose tolerance in mice [1]	acute oral glucose tolerance in mice, compared with Sitagliptin (10 mg/kg) [1]	inhibition at 10 µM [2] [%]	inhibition at 50 µM [2] [%]
O=C(O)C1O[C@@H](OC2C(O)[C@H](O)C(C(=O)O)O[C@H]2Oc2cc(O)c3c(=O)cc(-c4ccc(O)c(O)c4)oc3c2)C(O)C(O)[C@@H]1O (stereo partly drawn) [Compound I, luteolin-7-O-[β-glucuronosyl(1→2)β-glucuronic acid]]	significantly enhance acute oral glucose tolerance	activity comparable to the commercial chemical drug, Sitagliptin	~20	> 50
O=C(O)C1O[C@@H](OC2C(O)[C@H](O)C(C(=O)O)O[C@H]2Oc2cc(O)c3c(=O)cc(-c4ccc(O)cc4)oc3c2)C(O)C(O)[C@@H]1O (stereo partly drawn) [Compound II, apigenin-7-O-[β-glucuronosyl(1→2)β-glucuronic acid]]	significantly enhance acute oral glucose tolerance	activity comparable to the commercial chemical drug, Sitagliptin	~20	> 50
